Data as given in publication PMC11384632, “Protease-activated CendR peptides targeting tenascin-C: mitigating off-target tissue accumulation” (Drug Delivery and Translational Research, 2024).
Peptide text beside a SMILES is read from it. * marks the point of attachment. 5FAM = O=C1OC2(c3ccc(O)cc3Oc3cc(O)ccc32)c2ccc(C(=O)*)cc21; Ahx = NCCCCCC(=O)O

System: orthotopic WT-GBM-bearing nude mice
Assay: Biodistribution of monomeric FAM-labeled peptides in WT-GBM mice (anti-FAM DAB immunohistochemistry)
Assay type: in vivo
Conditions: 200 µg i.v., 1 h circulation, perfused, anti-FAM DAB staining, qualitative, n = 3, Fig. 6d
Source text: Whereas polyvalent targeting systems, such as bacteriophages and AgNPs used in previous sections, exploit multivalent interactions to enhance specificity and binding efficiency, monovalent targeting systems rely on single ligand-receptor interactions for targeted drug delivery. The choice between these two approaches depends on affinity of the targeting ligand and the pharmacokinetic properties of the therapeutic agent. We next studied in vivo biodistribution of monomeric FAM-labeled SKLG, PL3, and scrambled PL3 control (scrPL3) peptides in WT-GBM tumor-bearing mice. The mice were dosed with FAM-labeled peptides followed by perfusion, tissue collection, sectioning, and detection of the peptides using immunohistochemistry with anti-FAM antibodies.
Fig. 6 Biodistribution of monomeric FAM-labeled peptides in WT-GBM mice. Orthotopic GBM-bearing nude mice were i.v. injected with FAM-labeled scrambled PL3 control (scrPL3), PL3 or SKLG peptides. After 1 h of circulation the mice were anesthetized and perfused. Organs were harvested, sectioned, and parallel sections were immunostained with hematoxylin & eosin (H&E) staining or anti-FAM 3, 3'-diaminobenzidine (DAB) staining. (a) H&E of WT-GBM tumor-bearing brain tissue sections. (b) DAB staining of WT-GBM tumor region in the brain. (c) H&E staining of lung tissue sections. (d) DAB staining of lung tissue sections. […]

CC(C)C[C@H](NC(=O)[C@H](CCCNC(=N)N)NC(=O)CNC(=O)[C@H](CCCNC(=N)N)NC(=O)CNC(=O)[C@H](C)NC(=O)[C@H](CCCNC(=N)N)NC(=O)CCCCCNC(=O)c1ccc2c(c1)C(=O)OC21c2ccc(O)cc2Oc2cc(O)ccc21)C(=O)N[C@H](C(=O)O)C(C)C [scrPL3] ({5FAM-Ahx}-RAGRGRLV-OH)
accumulation of FAM-labeled peptide in pulmonary tissue: only a background signal
